Results from ChEMBL document CHEMBL2375251, “Anticancer activity of novel hybrid molecules containing 5-benzylidene thiazolidine-2,4-dione” (Eur J Med Chem, 2013).
Activity calls are given as the source filed them. No cut-off for these calls is given here.

How the values were obtained:
[1] = tested on: HL-60; test: Cytotoxicity against human HL60 cells after 4 hrs by MTT assay; format: functional, cell-based
[2] = tested on: MOLT-3; test: Induction of apoptosis in human MOLT3 cells assessed as procaspase-9 activation at 1 uM after 6 hrs by Western blot analysis; format: functional, cell-based
[3] = tested on: HL-60; test: Induction of apoptosis in human HL60 cells assessed as cytochrome c release at 1 uM after 6 hrs by Western blot analysis; format: functional, cell-based
[4] = tested on: HL-60; test: Induction of apoptosis in human HL60 cells assessed as chromatin condensation at 1 uM after 6 hrs by Hoechst 33258 staining based fluorescence microscopy; format: functional, cell-based
[5] = tested on: HL-60; test: Induction of apoptosis in human HL60 cells assessed as procaspase-6 activation at 1 uM after 6 hrs by Western blot analysis; format: functional, cell-based
[6] = tested on: MOLT-3; test: Induction of apoptosis in human MOLT3 cells assessed as caspase 3/7-mediated DEVD-pNA cleavage at 1 uM after 6 hrs by colorimetric assay relative to control; format: functional
[7] = tested on: U-937; test: Induction of apoptosis in human U937 cells assessed as procaspase-7 activation at 1 uM after 6 hrs by Western blot analysis; format: functional, cell-based
[8] = tested on: HL-60; test: Induction of apoptosis in human HL60 cells assessed as appearance of apoptotic bodies at 1 uM after 6 hrs by Hoechst 33258 staining based fluorescence microscopy; format: functional, cell-based
[9] = tested on: U-937; test: Induction of apoptosis in human U937 cells assessed as chromatin condensation at 1 uM after 6 hrs by Hoechst 33258 staining based fluorescence microscopy; format: functional, cell-based
[10] = tested on: U-937; test: Induction of apoptosis in human U937 cells assessed as procaspase-3 activation at 1 uM after 6 hrs by Western blot analysis; format: functional, cell-based
[11] = tested on: MOLT-3; test: Induction of apoptosis in human MOLT3 cells assessed as caspase9-mediated LEHD-pNA cleavage at 1 uM after 6 hrs by colorimetric assay; format: functional, cell-based
[12] = tested on: MOLT-3; test: Induction of apoptosis in human MOLT3 cells assessed as caspase 8-mediated IETD-pNA cleavage at 1 uM after 6 hrs by colorimetric assay; format: functional, cell-based
[13] = tested on: HL-60; test: Induction of apoptosis in human HL60 cells assessed as hypodiploid DNA content at 3 uM after 6 hrs by propidium iodide staining-based flow cytometry relative to control; format: functional
[14] = tested on: U-937; test: Induction of apoptosis in human U937 cells assessed as appearance of apoptotic bodies at 1 uM after 6 hrs by Hoechst 33258 staining based fluorescence microscopy; format: functional, cell-based
[15] = tested on: HL-60; test: Induction of apoptosis in human HL60 cells assessed as caspase9-mediated LEHD-pNA cleavage at 1 uM after 6 hrs by colorimetric assay; format: functional, cell-based
[16] = tested on: HL-60; test: Induction of apoptosis in human HL60 cells assessed as procaspase-8 activation at 1 uM after 6 hrs by Western blot analysis; format: functional, cell-based
[17] = tested on: FM3A; test: Cytotoxicity against mouse FM3A cells after 2 days by Coulter counter analysis; format: functional, cell-based; details: 48 h
[18] = tested on: HL-60; test: Induction of apoptosis in human HL60 cells assessed as caspase-3-mediated PARP hydrolysis at 1 uM after 6 hrs by Western blot analysis; format: functional, cell-based
[19] = tested on: MOLT-3; test: Induction of apoptosis in human MOLT3 cells assessed as cytochrome c release at 1 uM after 6 hrs by Western blot analysis; format: functional, cell-based
[20] = tested on: U-937; test: Induction of apoptosis in human U937 cells assessed as caspase 8-mediated IETD-pNA cleavage at 1 uM after 6 hrs by colorimetric assay; format: functional, cell-based
[21] = tested on: U-937; test: Induction of apoptosis in human U937 cells assessed as chromatin hydrolysis at 1 uM after 6 hrs by agarose gel electrophoresis; format: functional, cell-based
[22] = tested on: HL-60; test: Induction of apoptosis in human HL60 cells assessed as chromatin hydrolysis at 1 uM after 6 hrs by agarose gel electrophoresis; format: functional, cell-based
[23] = tested on: MOLT-3; test: Induction of apoptosis in human MOLT3 cells assessed as caspase-3-mediated PARP hydrolysis at 1 uM after 6 hrs by Western blot analysis; format: functional, cell-based
[24] = tested on: U-937; test: Induction of apoptosis in human U937 cells assessed as caspase9-mediated LEHD-pNA cleavage at 1 uM after 6 hrs by colorimetric assay; format: functional, cell-based
[25] = tested on: MOLT-3; test: Induction of apoptosis in human MOLT3 cells assessed as chromatin hydrolysis at 1 uM after 6 hrs by agarose gel electrophoresis; format: functional, cell-based
[26] = tested on: HeLa; test: Cytotoxicity against human HeLa cells after 4 days by Coulter counter analysis; format: functional, cell-based; details: 96 h
[27] = tested on: U-937; test: Induction of apoptosis in human U937 cells assessed as procaspase-9 activation at 1 uM after 6 hrs by Western blot analysis; format: functional, cell-based
[28] = tested on: U-937; test: Induction of apoptosis in human U937 cells assessed as procaspase-8 activation at 1 uM after 6 hrs by Western blot analysis; format: functional, cell-based
[29] = tested on: MOLT-3; test: Induction of apoptosis in human MOLT3 cells assessed as procaspase-6 activation at 1 uM after 6 hrs by Western blot analysis; format: functional, cell-based
[30] = tested on: U-937; test: Induction of apoptosis in human U937 cells assessed as caspase 3/7-mediated DEVD-pNA cleavage at 1 uM after 6 hrs by colorimetric assay relative to control; format: functional
[31] = tested on: CCRF-CEM; test: Cytotoxicity against human CEM cells after 3 days by Coulter counter analysis; format: functional, cell-based; details: 72 h
[32] = tested on: U-937; test: Induction of apoptosis in human U937 cells assessed as caspase 3/7-mediated DEVD-pNA cleavage at 1 uM after 6 hrs by colorimetric assay; format: functional, cell-based
[33] = tested on: L1210; test: Cytotoxicity against mouse L1210 cells after 2 days by Coulter counter analysis; format: functional, cell-based; details: L1210, 48 h
[34] = tested on: MOLT-3; test: Induction of apoptosis in human MOLT3 cells assessed as procaspase-8 activation at 1 uM after 6 hrs by Western blot analysis; format: functional, cell-based
[35] = tested on: MOLT-3; test: Induction of apoptosis in human MOLT3 cells assessed as procaspase-3 activation at 1 uM after 6 hrs by Western blot analysis; format: functional, cell-based
[36] = tested on: U-937; test: Cytotoxicity against human U937 cells after 4 hrs by MTT assay; format: functional, cell-based
[37] = tested on: U-937; test: Induction of apoptosis in human U937 cells assessed as hypodiploid DNA content at 3 uM after 6 hrs by propidium iodide staining-based flow cytometry relative to control; format: functional
[38] = tested on: HL-60; test: Induction of apoptosis in human HL60 cells assessed as procaspase-7 activation at 1 uM after 6 hrs by Western blot analysis; format: functional, cell-based
[39] = tested on: HL-60; test: Induction of apoptosis in human HL60 cells assessed as procaspase-3 activation at 1 uM after 6 hrs by Western blot analysis; format: functional, cell-based
[40] = tested on: HL-60; test: Induction of apoptosis in human HL60 cells assessed as caspase 3/7-mediated DEVD-pNA cleavage at 1 uM after 6 hrs by colorimetric assay relative to control; format: functional
[41] = tested on: MOLT-3; test: Induction of apoptosis in human MOLT3 cells assessed as caspase 3/7-mediated DEVD-pNA cleavage at 1 uM after 6 hrs by colorimetric assay; format: functional, cell-based
[42] = tested on: MOLT-3; test: Cytotoxicity against human MOLT3 cells after 4 hrs by MTT assay; format: functional, cell-based
[43] = tested on: MOLT-3; test: Induction of apoptosis in human MOLT3 cells assessed as procaspase-7 activation at 1 uM after 6 hrs by Western blot analysis; format: functional, cell-based
[44] = tested on: U-937; test: Induction of apoptosis in human U937 cells assessed as caspase-3-mediated PARP hydrolysis at 1 uM after 6 hrs by Western blot analysis; format: functional, cell-based
[45] = tested on: U-937; test: Induction of apoptosis in human U937 cells assessed as cytochrome c release at 1 uM after 6 hrs by Western blot analysis; format: functional, cell-based
[46] = tested on: HL-60; test: Induction of apoptosis in human HL60 cells assessed as caspase 8-mediated IETD-pNA cleavage at 1 uM after 6 hrs by colorimetric assay; format: functional, cell-based
[47] = tested on: U-937; test: Induction of apoptosis in human U937 cells assessed as procaspase-6 activation at 1 uM after 6 hrs by Western blot analysis; format: functional, cell-based
[48] = tested on: HL-60; test: Induction of apoptosis in human HL60 cells assessed as caspase 3/7-mediated DEVD-pNA cleavage at 1 uM after 6 hrs by colorimetric assay; format: functional, cell-based
[49] = tested on: HL-60; test: Induction of apoptosis in human HL60 cells assessed as procaspase-9 activation at 1 uM after 6 hrs by Western blot analysis; format: functional, cell-based

## C=C(Br)C(=O)Nc1cccc(/C=C2\SC(=O)N(Cc3ccc(C(F)(F)F)cc3)C2=O)c1
[1]
  Activity: Dose-dependent effect
[1]; HL-60, 4 h
  IC50: 450 nM
[2]
  Activity: Active
[3]
  Activity: Active
[4]
  Activity: Active
[5]
  Activity: Active
[6]
  fold change (FC): >2
[7]
  Activity: Active
[8]
  Activity: Active
[9]
  Activity: Active
[10]
  Activity: Active
[11]
  Activity: Active
[12]
  Activity: Active
[13]
  fold change (FC): 23
[14]
  Activity: Active
[15]
  Activity: Active
[16]
  Activity: Active
[17]
  IC50: 870 nM
[18]
  Activity: Active
[19]
  Activity: Active
[20]
  Activity: Active
[21]
  Activity: Active
[22]
  Activity: Active
[23]
  Activity: Active
[24]
  Activity: Active
[25]
  Activity: inactive
[26]
  IC50: 820 nM
[27]
  Activity: Active
[28]
  Activity: Active
[29]
  Activity: Active
[30]
  fold change (FC): >10
[31]
  IC50: 920 nM
[32]
  Activity: Active
[33]
  IC50: 720 nM
[34]
  Activity: Active
[35]
  Activity: Active
[36]
  Activity: Dose-dependent effect
[36]; U-937, 4 h
  IC50: 500 nM
[37]
  fold change (FC): 16
[38]
  Activity: Active
[39]
  Activity: Active
[40]
  fold change (FC): >5
[41]
  Activity: Active
[42]
  Activity: Dose-dependent effect
[42]; MOLT-3, 4 h
  IC50: 710 nM
[43]
  Activity: Active
[44]
  Activity: Active
[45]
  Activity: Active
[46]
  Activity: Active
[47]
  Activity: Active
[48]
  Activity: Active
[49]
  Activity: Active
